Source: US11339144B2 (Navitor Pharmaceuticals, Inc., priority 2017, dated 2022)

Tests used:
[1] = target: HA-GST-Rheb (GTP-γ-S loaded) activating mTORC1 (Homo sapiens (Human), UniProt Q15382); assay: Rheb-dependent in vitro kinase assay (Rheb-IVK; LanthaScreen or Western readout); type: biochemical; conditions: Rheb-dependent in vitro kinase assay; read-out: IVK IC50
[2] = target: Rheb (Homo sapiens (Human), UniProt Q15382); assay: Affinity Selection Mass Spectrometry (ASMS); type: binding; conditions: affinity (R3/R0) in Affinity Selection Mass Spectrometry assay
Sequence of Rheb (Q15382 1-169 limits assumed): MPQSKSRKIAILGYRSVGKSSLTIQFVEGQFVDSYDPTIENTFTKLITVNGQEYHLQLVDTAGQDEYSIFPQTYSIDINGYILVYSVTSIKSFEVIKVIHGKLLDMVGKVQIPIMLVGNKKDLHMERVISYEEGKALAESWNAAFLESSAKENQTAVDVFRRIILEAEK
Outline: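 Affinity selection used 2 μM compound with 60 μM Rheb and 180 μM GDP for 30 min at room temperature. After 10 kDa ultrafiltration washes, protein was denatured in MeCN and bound compound quantified by C18 UPLC with Q-TOF MS, against a no-protein control.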

Sequence of HA-GST-Rheb (GTP-γ-S loaded) activating mTORC1 (Q15382 1-181): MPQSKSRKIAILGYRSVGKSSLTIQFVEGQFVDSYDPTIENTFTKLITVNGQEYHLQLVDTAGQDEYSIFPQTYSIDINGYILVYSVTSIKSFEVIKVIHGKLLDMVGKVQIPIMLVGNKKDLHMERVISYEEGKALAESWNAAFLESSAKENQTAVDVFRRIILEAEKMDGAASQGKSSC

Row | SMILES | IC50 [1] | ASMS (R3/R0) [2]
1 | O=C(O)c1cc2c(Oc3cc(Cl)ccc3Cl)cc(Cl)cc2[nH]1 [I-172, 6-Chloro-4-(2,5-dichlorophenoxy)-1H-indole-2-carboxylic acid] | 10 to 100 µM | B (an affinity (R3/R0) between 100% and 20%)
2 | O=C(O)c1cc2c(Cl)cc(Oc3ccccc3)cc2n1Cc1c[nH]cn1 [I-173, 1-((1H-imidazol-4-yl)methyl)-4-chloro-6-phenoxy-1H-indole-2-carboxylic acid] | 10 to 100 µM | C (an affinity (R3/R0)<20%)
3 | O=C(O)c1cc2c(Oc3ccccc3)cc(Cl)cc2[nH]1 [I-175, 6-chloro-4-phenoxy-1H-indole-2-carboxylic acid] | 100 to 300 µM | B (an affinity (R3/R0) between 100% and 20%)
4 | OCc1cc2c(OCc3cccc(Cl)c3)cc(Cl)cc2[nH]1 [I-176, (6-chloro-4-(3-chlorobenzyloxy)-1H-indol-2-yl)methanol] | 10 to 100 µM | B (an affinity (R3/R0) between 100% and 20%)
5 | O=C(NO)c1cc2c(Sc3ccc(Cl)cc3)cc(Cl)cc2[nH]1 [I-177, 6-chloro-4-(4-chlorophenylthio)-N-hydroxy-1H-indole-2-carboxamide] | 10 to 100 µM | A (an affinity (R3/R0)>100%)
6 | Clc1ccc(Sc2cc(Cl)cc3[nH]ccc23)cc1 [I-180, 6-chloro-4-(4-chlorophenylthio)-1H-indole] | 10 to 100 µM | B (an affinity (R3/R0) between 100% and 20%)
7 | OCc1cc2ccc(Sc3ccc(Cl)cc3)cc2n1Cc1nc[nH]n1 [I-185] | > 100 µM | C (an affinity (R3/R0)<20%)
8 | CC(O)c1cc2c(Oc3ccccc3)cc(Cl)cc2[nH]1 (stereo not drawn) [I-186, 1-(6-Chloro-4-phenoxy-1H-indol-2-yl)ethanol] | 10 to 100 µM | B (an affinity (R3/R0) between 100% and 20%)
9 | OCc1cc2c(Sc3ccc(Cl)cc3)cc(Cl)cc2[nH]1 [I-187, (6-chloro-4-(4-chlorophenylthio)-1H-indol-2-yl)methanol] | < 10 µM | B (an affinity (R3/R0) between 100% and 20%)
10 | O=C(O)c1cc2c(Sc3ccc(Cl)cc3)cc(Cl)cc2[nH]1 [I-190, 6-chloro-4-(4-chlorophenylthio)-1H-indole-2-carboxylic acid] | 10 to 100 µM | B (an affinity (R3/R0) between 100% and 20%)

Further lines, with some results ahead:

Row | IC50 [1] | SMILES | ASMS (R3/R0) [2]
11 | 10 to 100 µM | OCc1cc2c(Cl)cc(Oc3ccccc3)cc2n1Cc1nn[nH]n1 [I-194, (1-((2H-tetrazol-5-yl)methyl)-4-chloro-6-phenoxy-1H-indol-2-yl)methanol] | C (an affinity (R3/R0)<20%)
12 | 10 to 100 µM | OCc1cc(Sc2ccc(Cl)cc2)c2cc[nH]c2c1 [I-198, (4-(4-chlorophenylthio)-1H-indol-6-yl)methanol] | B (an affinity (R3/R0) between 100% and 20%)
13 | 10 to 100 µM | Clc1cc(Oc2ccccc2Cl)c2cc[nH]c2c1 [I-202, 6-chloro-4-(2-chlorophenoxy)-1H-indole] | B (an affinity (R3/R0) between 100% and 20%)
14 | 10 to 100 µM | Clc1ccc(Oc2cc(Cl)cc3[nH]ccc23)cc1 [I-204, 6-chloro-4-(4-chlorophenoxy)-1H-indole] | C (an affinity (R3/R0)<20%)
15 | 10 to 100 µM | Cn1c(C(=O)O)cc2c(Sc3ccc(Cl)cc3)cc(Cl)cc21 [I-207, 6-chloro-4-(4-chlorophenylthio)-1-methyl-1H-indole-2-carboxylic acid] | B (an affinity (R3/R0) between 100% and 20%)
16 | 10 to 100 µM | Clc1cccc(Oc2cc(Cl)cc3[nH]ccc23)c1 [I-208, 6-chloro-4-(3-chlorophenoxy)-1H-indole] | B (an affinity (R3/R0) between 100% and 20%)
17 | 10 to 100 µM | Clc1ccc(Cl)c(Sc2cccc3[nH]ccc23)c1 [I-209, 4-(2,5-dichlorophenylthio)-1H-indole] | B (an affinity (R3/R0) between 100% and 20%)
18 | > 3 µM | Clc1ccc(Sc2cccc3[nH]ccc23)c(Cl)c1 [I-212] | B (an affinity (R3/R0) between 100% and 20%)
